Experimental findings from paper PMC6747015, “Structure–function study of a novel inhibitor of the casein kinase 1 family in Arabidopsis thaliana” (Plant Direct, 2019) are described below.

The target of one experiment is T1, LUP1 (AT1G78970) (Arabidopsis thaliana, UniProt Q9C5M3).
T1 construct: from tissue; host or cells: Arabidopsis seedlings, two weeks old
In words: AMI‐329 bead binding with AMI‐331 competitor, LUP1. The procedure:
Screening for proteins bound to AMI‐329 beads was done by a method similar to what has previously been described (Uehara et al., 2019). Briefly, two‐week‐old seedlings grown under LD conditions were harvested at time points ZT2, ZT6, ZT9, and ZT17, and stored at −80°C. Proteins from the frozen plant samples were incubated with 0, 5, or 50 µM of AMI‐331 at 4°C for 30 min with rotary mixing. Two technical replicates were used for each experiment. PBS‐washed AMI‐329 beads were added to the protein samples and gently rotated at 4°C for 1 hr. AMI‐329 bead resins were washed with bead buffer (Uehara et al., 2019) six times. The washed resins were suspended in SDS sample buffer and boiled for 8 min. Protein samples were in‐gel‐digested as previously described (Uehara et al., 2019). Peptides were analyzed with a Q Exactive hybrid quadrupole‐orbitrap mass spectrometer (Thermo Fisher Scientific), as described previously (Uehara et al., 2019). […]
However, another possible mechanism for the strong AMI‐331 biological activity in vivo is that it targets proteins other than the CK1 family for period lengthening. […] It is noteworthy that kinase AT4G08800 is very similar to the CKL family, but the ATP‐binding pocket of mammalian CK1 as determined by its crystal structure (Shinohara et al., 2017) was absent from AT4G08800, as shown in an Araport 11 model (https://www.araport.org). […]

For the next experiment, the system named is PRR5 and TOC1. In words: PRR5 and TOC1 fusion protein accumulation by Western blotting. The class given is in vivo, Arabidopsis. The procedure:
Four‐day‐old seedlings grown under 12‐hr light/12‐hr dark (LD) conditions were transferred into a 96‐well plate with a dropper. Seedlings were treated with 20 µl of MS liquid containing 2% sucrose and AMI‐331 at 2, 10, or 50 µM with a final concentration of 5% (v/v) DMSO. As a control experiment, MS containing 2% sucrose and 5% DMSO was used to treat the seedlings. Seedlings were kept under constant light (L) or constant dark (D) for 24 hr, harvested, and kept frozen until proteins were extracted. Frozen samples were crushed with zirconia beads (Tomy ZB‐50) in a Tissue Lyser II (Qiagen). Detection of PRR5‐ and TOC1‐fusion proteins was performed using a 10%–20% gradient acrylamide gel (198‐15041, Wako) as previously described (Nakamichi et al., 2012). Anti‐FLAG antibody (F3165, Sigma) and anti‐VP antibody (ab4808, Abcam) were used to detect FLAG‐fusion and VP‐fusion proteins, respectively.
It had previously been shown that CKL4 phosphorylates PSEUDO‐RESPONSE REGULATOR 5 (PRR5), a clock‐associated transcription factor in vitro, and that treatment with the CK1 inhibitor PHA767491 results in over‐accumulation of PRR5 in vivo (Uehara et al., 2019). As a further test of whether the period‐lengthening activity of AMI‐331 is related to the inhibition of CK1 in vivo, we measured the amounts of PRR5 in plants treated with AMI‐331. Seedlings expressing fusion protein PRR5‐FLAG under control of the cauliflower mosaic virus 35S promoter (35Spro:PRR5‐FLAG) were grown under constant light conditions for 4 days, treated with AMI‐331, and kept constantly in the dark for one day. In control experiments (i.e., without AMI‐331), PRR5‐FLAG protein amounts were lower under dark compared to light conditions, due to ZTL‐dependent degradation, as described in previously (Fujiwara et al., 2008; Kiba, Henriques, Sakakibara, & Chua, 2007). […] Since PHA767491 treatment also attenuates degradation of TIMING OF CAB EXPRESSION 1 (TOC1, also called as PRR1) under dark conditions (Uehara et al., 2019), we tested whether AMI‐331 affects TOC1 protein accumulation in vivo. TOC1 amounts were higher in AMI‐331‐treated plants (Figures 3c, S2).

T1 sequence (Q9C5M3 whole entry): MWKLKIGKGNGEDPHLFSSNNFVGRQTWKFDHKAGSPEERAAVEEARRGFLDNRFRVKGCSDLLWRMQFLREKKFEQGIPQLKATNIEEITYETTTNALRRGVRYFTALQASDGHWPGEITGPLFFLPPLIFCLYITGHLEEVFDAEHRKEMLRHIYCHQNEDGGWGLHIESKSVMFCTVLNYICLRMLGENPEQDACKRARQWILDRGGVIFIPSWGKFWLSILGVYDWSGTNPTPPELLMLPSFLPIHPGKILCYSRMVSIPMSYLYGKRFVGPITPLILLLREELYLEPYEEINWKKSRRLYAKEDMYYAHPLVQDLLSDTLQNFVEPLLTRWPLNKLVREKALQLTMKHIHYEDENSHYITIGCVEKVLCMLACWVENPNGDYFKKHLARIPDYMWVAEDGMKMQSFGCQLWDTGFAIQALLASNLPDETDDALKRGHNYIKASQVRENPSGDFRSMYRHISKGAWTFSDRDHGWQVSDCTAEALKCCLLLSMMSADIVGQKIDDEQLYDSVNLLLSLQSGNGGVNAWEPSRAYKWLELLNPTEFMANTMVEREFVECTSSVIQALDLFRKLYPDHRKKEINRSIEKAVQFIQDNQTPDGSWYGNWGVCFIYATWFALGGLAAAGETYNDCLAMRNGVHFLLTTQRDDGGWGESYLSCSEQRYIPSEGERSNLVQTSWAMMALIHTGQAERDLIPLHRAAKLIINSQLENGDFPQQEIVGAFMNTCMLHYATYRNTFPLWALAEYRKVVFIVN

As to `C#CCn1c2c(c(Br)c1-c1ccncc1)C(=O)NCC2.Cl` [AMI‐331], the “Spectra (PSMs) AMI‐329 beads bound” value on LUP1 (AT1G78970) (competitor AMI‐331 5 µM) and at LUP1 (AT1G78970) (competitor AMI‐331 50 µM) was 0 PSMs in each case. The “PRR5‐FLAG protein amount” value in the experiment on PRR5 and TOC1 (35Spro:PRR5‐FLAG seedlings, dark conditions) is “over‐accumulation of PRR5‐FLAG”. Also, the “PRR5‐VP protein amount” value in the experiment with PRR5 and TOC1 (35Spro:PRR5‐VP seedlings, dose‐dependent) is listed as “accumulation of PRR5‐VP”. In the experiment on PRR5 and TOC1 (35Spro:TOC1‐VP seedlings), the TOC1 protein amount result is on record as “higher”. In the experiment on PRR5 and TOC1 (in vivo), the “Effective concentration for increasing PRR5 and TOC1, times lower than required for PHA767491” value is given as 10–50 times. For the same compound, the “Effective concentrations for PRR5 or TOC1 accumulation” value with PRR5 and TOC1 (seedlings, 24 hr in the dark) is 10 to 50 µM.
